Patent US9791447B2, “Methods of identifying SENP1 inhibitors” (City of Hope, priority 2013, dated 2017)

How the values were obtained:
HeLa cells = experiment: Cellular SENP inhibition: SUMOylated proteins in HeLa cells by Western blot; settings: increasing concentrations, 48 hours
SENP2 [1] = target: T1, SENP2 (Homo sapiens (Human), UniProt Q9HC62); experiment: SUMO cleavage assay (gel-based), SENP2, SUMO-2 precursor YSE substrate; type: biochemical; settings: cleavage of SUMO-2 precursor (YSE), read-out: IC50 (μM)-SUMO2 SENP2
SENP2 [2] = target: T1, SENP2; experiment: SUMO cleavage assay (gel-based), SENP2, SUMO-1 precursor YSE substrate; type: biochemical; settings: cleavage of SUMO-1 precursor (YSE), read-out: IC50 (μM)-SUMO1 SENP2
SENP2 [3] = target: T1, SENP2; experiment: DUB-Glo bioluminescent assay, SENP2; type: biochemical; settings: DUB-Glo substrate
Procedure: (§1) In 96-well plates, SENPs (50-200 nM) were pre-treated with increasing concentrations of each compound, after which DUB-Glo (40 μM final concentration; Promega, Madison, Wis.) was added as substrate. Experiments were performed in triplicate. The amount of cleaved product is proportional to the relative light unit (RLU), which is bioluminescence produced by luciferase catalyzed reaction of luciferin that was produced by SENP cleavage of DUB-Glo.
(§2) To determine whether other SENPs can be inhibited by this family of inhibitors, a distant SENP member, SENP7, was tested in parallel with SENP1 and SENP2 using a pentapeptide substrate that contained the Gly-Gly motif and luciferin, known as DUB-Glo (Promega, Madison, Wis.). Cleavage of luciferin by a SENP can be detected by a coupled bioluminescent assay using luciferase. The bioluminescent reporter was chosen instead of a fluorescent reporter to avoid interference by the compounds during detection.
(§3) DUB-Glo Assay. The luciferase substrate assay (DUB-Glo, Promega, Madison, Wis.) was performed according to the manufacturer's instructions. […] Luciferase output was recorded 30 min after addition of the luciferase substrate. […]

SENP7 = SENP7 (Homo sapiens (Human), UniProt Q9BQF6); experiment: DUB-Glo bioluminescent assay, SENP7; type: biochemical; settings: DUB-Glo substrate
Procedure: as §1, §2
DUB-Glo Assay. The luciferase substrate assay (DUB-Glo, Promega, Madison, Wis.) was performed according to the manufacturer's instructions. Briefly, SENPs (final concentration 50-100 nM) in Tris buffer (50 mM Tris, pH 8.0, 100 mM NaCl, 10 mM DTT) were pre-incubated (10 min, room temperature) with increasing concentrations of inhibitor (0-60 μM final concentration) followed by addition of the luciferase substrate. Luciferase output was recorded 30 min after addition of the luciferase substrate. Values are the averages of experiments performed in triplicate.

SENP1 [4] = target: T2, SENP1 (Homo sapiens (Human), UniProt Q9P0U3); experiment: DUB-Glo bioluminescent assay, SENP1; type: biochemical; settings: DUB-Glo substrate
Procedure: as §1, §2, §3

SENP1 [5] = target: T2, SENP1; experiment: SUMO cleavage assay (gel-based), SENP1, SUMO-1 precursor YSE substrate; type: biochemical; settings: cleavage of SUMO-1 precursor (YSE), read-out: IC50 (μM)-SUMO1 SENP1
SENP1 [6] = target: T2, SENP1; experiment: SUMO cleavage assay (gel-based), SENP1, SUMO-2 precursor YSE substrate; type: biochemical

T1 sequence (Q9HC62 364-589): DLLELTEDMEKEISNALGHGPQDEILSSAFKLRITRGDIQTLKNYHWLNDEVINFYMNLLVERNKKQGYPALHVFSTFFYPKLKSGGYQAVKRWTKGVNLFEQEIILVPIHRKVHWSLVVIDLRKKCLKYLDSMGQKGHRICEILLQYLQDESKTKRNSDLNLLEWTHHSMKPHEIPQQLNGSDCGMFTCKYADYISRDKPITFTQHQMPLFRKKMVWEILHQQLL
T2 sequence (Q9P0U3 419-644): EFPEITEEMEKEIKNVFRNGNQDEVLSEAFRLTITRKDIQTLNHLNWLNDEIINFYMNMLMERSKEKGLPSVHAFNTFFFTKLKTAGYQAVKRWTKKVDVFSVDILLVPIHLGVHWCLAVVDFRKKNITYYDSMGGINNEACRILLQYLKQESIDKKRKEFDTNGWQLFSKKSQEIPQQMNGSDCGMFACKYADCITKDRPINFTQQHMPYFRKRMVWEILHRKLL
SENP7, sequence (Q9BQF6 760-1050): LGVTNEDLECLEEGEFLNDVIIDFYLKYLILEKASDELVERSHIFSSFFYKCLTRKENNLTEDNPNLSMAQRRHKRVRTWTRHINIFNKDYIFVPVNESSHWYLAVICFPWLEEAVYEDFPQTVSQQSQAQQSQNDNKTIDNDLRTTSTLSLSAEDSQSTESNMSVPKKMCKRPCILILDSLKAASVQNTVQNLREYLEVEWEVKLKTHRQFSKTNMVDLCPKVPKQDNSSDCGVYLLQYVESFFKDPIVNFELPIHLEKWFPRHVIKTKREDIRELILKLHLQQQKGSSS

Nc1ccc2ccccc2c1/N=N/c1ccc(/C=C/c2ccc(/N=N/c3c(N)ccc4ccccc34)cc2S(=O)(=O)O)c(S(=O)(=O)O)c1 [SPI-01] was tested, and the “accumulation of SUMO-1 conjugates” value (HeLa cells) was “less significant effects on the accumulation of SUMO-1 conjugates” and the “accumulation of SUMO-2/3 conjugates” value (HeLa cells) was “SUMO-2/3 conjugates accumulated in cells”.

With Cc1cc(N)ccc1/N=N/c1cc(S(=O)(=O)O)c2cccc(S(=O)(=O)O)c2c1.[Na+].[Na+] [SPI-07] the IC50 (SENP2 [1]) was 28.1 ± 9.2 µM, the IC50 (SENP2 [2]) was > 60 µM and the IC50 (SENP2 [3]) was > 60 µM. For the same compound, the IC50 (SENP7) was 1.9 ± 2.2 µM, the IC50 (SENP1 [4]) was > 60 µM and the IC50 (SENP1 [5]) was > 60 µM. For the same compound, the IC50 (SENP1 [6]; cleavage of SUMO-2 precursor (YSE), gel-based, read-out: IC50 (μM)-SUMO2 SENP1) was 17.5 ± 4.9 µM and the “potency for inhibiting SENP1 compared with SENP2” value (SENP1 [6]; cleavage of the SUMO-2 precursor) was “more potent for inhibiting SENP1 than SENP2”.

Nc1c(/N=N/c2ccccc2)cc(S(=O)(=O)O)c2ccccc12 [SPI-08] showed an IC50 (SENP7) of 2.8 ± 1.6 µM.

With Nc1ccc2cc(S(=O)(=O)O)cc(S(=O)(=O)O)c2c1/N=N/c1ccc(S(=O)(=O)O)cc1 [SPI-09] the IC50 (SENP7) was 1.9 ± 2.1 µM.
